Assay results taken from US20260274892A1, “MACROCYCLIC BROAD SPECTRUM ANTIBIOTICS” (RQx Pharmaceuticals, Inc., priority 2017, published 2026).

Legend:
[1] = test system: Escherichia coli ATCC 25922; experiment: Minimum inhibitory concentration (MIC), CLSI broth micro-dilution, E. coli; type: cell-based; details: Escherichia coli, ATCC25922, 22 h, Table 6, cation adjusted Mueller Hinton Broth + 0.002% Tween-80, 35° C.
How it was run: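 Antibacterial potency is measured as MIC by the CLSI broth dilution method. Bacteria at OD600 0.0005 in Tween-80-supplemented cation-adjusted Mueller Hinton broth face ten twofold compound dilutions for 22 h at 35° C.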

[2] = test system: Methicillin Resistant Staphylococcus aureus strain USA 200; experiment: Minimum inhibitory concentration (MIC), CLSI broth micro-dilution, S. aureus; type: cell-based; details: Staphylococcus aureus, MRSA / USA200; Table 6; MRSA USA 200; cation adjusted Mueller Hinton Broth + 0.002% Tween-80; 35° C., 22 hours
Procedure: In vitro antimicrobial activity of each compound was determined by measuring minimal inhibitor concentrations (MICs) using the broth micro-dilution technique as approved by the Clinical and Laboratory Standards Institute (CLSI) (Methods for Dilution Antimicrobial Susceptibility Tests for Bacteria that Grow Aerobically; Approved Standard-Eighth Edition. CLSI document M07-A8. Wayne, PA: Clinical and Laboratroy Standards; 2009). Antibacterial activity was measure against two strains of bacteria: a Methicillin Resistant Staphylococcus aureus strain USA 200, (S. aureus) and Escherichia coli ATCC 25922 (E. coli), a clinically relevant Gram-negative strain. Cells were inoculated onto plates of Trypyticase Soy Agar or Luria Agar respectively and grown at 35° C. for 20 hours. Inocula suspensions were prepared by scraping cells into 1 mL of testing media (cation adjusted Mueller Hinton Broth supplemented with 0.002% v/v Tween-80) and diluting to a final OD600nm of 0.01.
Test compounds were prepared in DMSO at a concentration of 10 mg/mL. In protocol 1, the compound stocks were diluted into testing media at a concentration of 64 µg/ml and serial 2-fold dilutions were made in the same media, in 96-well U bottom microtiter dishes, for a total of 10 compound concentrations. In protocol 2, the compound stocks were diluted into testing media at a concentration of 4 µg/mL and serial 2-fold dilutions were made in the same media, in 96-well U bottom microtiter dishes, for a total of 10 compound concentrations. In protocol 3, compound stocks were diluted into testing media at a concentration of 0.5 μg/mL, with serial 2-fold dilutions conducted as described above. In protocol 4, compound stocks were diluted into testing media at a concentration of […], with serial 2-fold dilutions conducted as described above. Inocula suspensions were added to the 2-fold serial dilutions of test compounds to a final density of GD OD600nm of 0.0005 and incubated at 35° C. for 22 hours.

| Compound | MIC [1] | MIC [2] |
| --- | --- | --- |
| Cc1nc(-c2ccc(C(C)(C)C)cc2)ccc1C(=O)N[C@@H](CCN)C(=O)N(C)[C@@H]1C(=O)N[C@@H](C)C(=O)N[C@H](C(=O)NCC#N)Cc2ccc(OCCN)c(c2)-c2cc1ccc2OCCN (racemic) [Compound 206, rac-(8S,11S,14S)-3,18-bis(2-aminoethoxy)-N-(cyanomethyl)-11-methyl-14-[methyl-[rac-(2S)-4-amino-2-[[6-(4-tert-butylphenyl)-2-methyl-pyridine-3-carbonyl]amino]butanoyl]amino]-10,13-dioxo-9,12-diazatricyclo[13.3.1.12,6]icosa-1(18),2(20),3,5,15(19),16-hexaene-8-carboxamide] | 0.13 µM | 0.025 µM |
| CCCc1ccc(-c2ccc(C(=O)N[C@@H](CCN)C(=O)N(C)[C@@H]3C(=O)N[C@@H](C)C(=O)N[C@H](C(=O)NCC#N)Cc4ccc(OCCN)c(c4)-c4cc3ccc4OCCN)c(C)n2)cc1 (racemic) [Compound 208, rac-(8S,11S,14S)-3,18-bis(2-aminoethoxy)-N-(cyanomethyl)-11-methyl-14-[methyl-[rac-(2S)-4-amino-2-[[2-methyl-6-(4-propylphenyl)pyridine-3-carbonyl]amino]butanoyl]amino]-10,13-dioxo-9,12-diazatricyclo[13.3.1.12,6]icosa-1(18),2(20),3,5,15(19),16-hexaene-8-carboxamide] | 0.14 µM | 0.017 µM |
| CCCCCc1ncc(-c2ccc(C(=O)N[C@@H](CCN)C(=O)N(C)[C@@H]3C(=O)N[C@@H](C)C(=O)N[C@H](C(=O)NCC#N)Cc4ccc(OCCN)c(c4)-c4cc3ccc4OCCN)c(C)n2)cn1 (racemic) [Compound 209, rac-(8S,11S,14S)-3,18-bis(2-aminoethoxy)-N-(cyanomethyl)-11-methyl-14-[methyl-[rac-(2S)-4-amino-2-[[2-methyl-6-(2-pentylpyrimidin-5-yl)pyridine-3-carbonyl]amino]butanoyl]amino]-10,13-dioxo-9,12-diazatricyclo[13.3.1.12,6]icosa-1(18),2(20),3,5,15(19),16-hexaene-8-carboxamide] | 2.1 µM | 0.26 µM |
| Cc1nc(C#CC(C)(C)C)ccc1C(=O)N[C@@H](CCN)C(=O)N(C)[C@@H]1C(=O)N[C@@H](C)C(=O)N[C@H](C(=O)NCC#N)Cc2ccc(OCCN)c(c2)-c2cc1ccc2OCCN (racemic) [Compound 213, rac-(8S,11S,14S)-3,18-bis(2-aminoethoxy)-N-(cyanomethyl)-11-methyl-14-[methyl-[rac-(2S)-4-amino-2-[[6-(3,3-dimethylbut-1-ynyl)-2-methyl-pyridine-3-carbonyl]amino]butanoyl]amino]-10,13-dioxo-9,12-diazatricyclo[13.3.1.12,6]icosa-1(18),2(20),3,5,15(19),16-hexaene-8-carboxamide] | 1.1 µM | 0.28 µM |
| Cc1nc(C#CC2CCCCC2)ccc1C(=O)N[C@@H](CCN)C(=O)N(C)[C@@H]1C(=O)N[C@@H](C)C(=O)N[C@H](C(=O)NCC#N)Cc2ccc(OCCN)c(c2)-c2cc1ccc2OCCN (racemic) [Compound 214, rac-(8S,11S,14S)-3,18-bis(2-aminoethoxy)-N-(cyanomethyl)-11-methyl-14-[methyl-[rac-(2S)-4-amino-2-[[6-(2-cyclohexylethynyl)-2-methyl-pyridine-3-carbonyl]amino]butanoyl]amino]-10,13-dioxo-9,12-diazatricyclo[13.3.1.12,6]icosa-1(18),2(20),3,5,15(19),16-hexaene-8-carboxamide] | 0.41 µM | 0.034 µM |
| Cc1nc(-c2ccc3c(c2)CCCC3)ncc1C(=O)N[C@@H](CCN)C(=O)N(C)[C@@H]1C(=O)N[C@@H](C)C(=O)N[C@H](C(=O)NCC#N)Cc2ccc(OCCN)c(c2)-c2cc1ccc2OCCN (racemic) [Compound 216, rac-(8S,11S,14S)-3,18-bis(2-aminoethoxy)-N-(cyanomethyl)-11-methyl-14-[methyl-[rac-(2S)-4-amino-2-[(4-methyl-2-tetralin-6-yl-pyrimidine-5-carbonyl)amino]butanoyl]amino]-10,13-dioxo-9,12-diazatricyclo[13.3.1.12,6]icosa-1(18),2(20),3,5,15(19),16-hexaene-8-carboxamide] | 0.2 µM | 0.0084 µM |
| Cc1nc(-c2ccc(C3(C(F)(F)F)CC3)cc2)ncc1C(=O)N[C@@H](CCN)C(=O)N(C)[C@@H]1C(=O)N[C@@H](C)C(=O)N[C@H](C(=O)NCC#N)Cc2ccc(OCCN)c(c2)-c2cc1ccc2OCCN (racemic) [Compound 219, rac-(8S,11S,14S)-3,18-bis(2-aminoethoxy)-N-(cyanomethyl)-11-methyl-14-[methyl-[rac-(2S)-4-amino-2-[[4-methyl-2-[4-[1-(trifluoromethyl)cyclopropyl]phenyl]pyrimidine-5-carbonyl]amino]butanoyl]amino]-10,13-dioxo-9,12-diazatricyclo[13.3.1.12,6]icosa-1(18),2(20),3,5,15(19),16-hexaene-8-carboxamide] | 0.13 µM | 0.012 µM |
| CCc1ccc(-c2ncc(C(=O)N[C@@H](CCN)C(=O)N(C)[C@@H]3C(=O)N[C@@H](C)C(=O)N[C@H](C(=O)NCC#N)Cc4ccc(OCCN)c(c4)-c4cc3ccc4OCCN)c(C)n2)c2ccccc12 (racemic) [Compound 221, rac-(8S,11S,14S)-3,18-bis(2-aminoethoxy)-N-(cyanomethyl)-11-methyl-14-[methyl-[rac-(2S)-4-amino-2-[[2-(4-ethyl-1-naphthyl)-4-methyl-pyrimidine-5-carbonyl]amino]butanoyl]amino]-10,13-dioxo-9,12-diazatricyclo[13.3.1.12,6]icosa-1(18),2(20),3,5,15(19),16-hexaene-8-carboxamide] | 1 µM | 0.024 µM |

Stronger by MIC [1], values ahead:

| MIC [1] | MIC [2] | Compound |
| --- | --- | --- |
| 0.1 µM | 0.017 µM | CCCCc1ccc(-c2ccc(C(=O)N[C@@H](CCN)C(=O)N(C)[C@@H]3C(=O)N[C@@H](C)C(=O)N[C@H](C(=O)NCC#N)Cc4ccc(OCCN)c(c4)-c4cc3ccc4OCCN)c(C)n2)cc1 (racemic) [Compound 207, rac-(8S,11S,14S)-3,18-bis(2-aminoethoxy)-N-(cyanomethyl)-11-methyl-14-[methyl-[rac-(2S)-4-amino-2-[[6-(4-butylphenyl)-2-methyl-pyridine-3-carbonyl]amino]butanoyl]amino]-10,13-dioxo-9,12-diazatricyclo[13.3.1.12,6]icosa-1(18),2(20),3,5,15(19),16-hexaene-8-carboxamide] |
| 0.099 µM | 0.0082 µM | Cc1nc(-c2ccc(CC3CCC3)cc2)ncc1C(=O)N[C@@H](CCN)C(=O)N(C)[C@@H]1C(=O)N[C@@H](C)C(=O)N[C@H](C(=O)NCC#N)Cc2ccc(OCCN)c(c2)-c2cc1ccc2OCCN (racemic) [Compound 217, rac-(8S,11S,14S)-3,18-bis(2-aminoethoxy)-N-(cyanomethyl)-11-methyl-14-[methyl-[rac-(2S)-4-amino-2-[[2-[4-(cyclobutylmethyl)phenyl]-4-methyl-pyrimidine-5-carbonyl]amino]butanoyl]amino]-10,13-dioxo-9,12-diazatricyclo[13.3.1.12,6]icosa-1(18),2(20),3,5,15(19),16-hexaene-8-carboxamide] |
| 0.097 µM | 0.012 µM | Cc1nc(-c2ccc(CC3CCCC3)cc2)ncc1C(=O)N[C@@H](CCN)C(=O)N(C)[C@@H]1C(=O)N[C@@H](C)C(=O)N[C@H](C(=O)NCC#N)Cc2ccc(OCCN)c(c2)-c2cc1ccc2OCCN (racemic) [Compound 218, rac-(8S,11S,14S)-3,18-bis(2-aminoethoxy)-N-(cyanomethyl)-11-methyl-14-[methyl-[rac-(2S)-4-amino-2-[[2-[4-(cyclopentylmethyl)phenyl]-4-methyl-pyrimidine-5-carbonyl]amino]butanoyl]amino]-10,13-dioxo-9,12-diazatricyclo[13.3.1.12,6]icosa-1(18),2(20),3,5,15(19),16-hexaene-8-carboxamide] |
| 0.099 µM | 0.0062 µM | Cc1nc(-c2ccc(CCC(C)C)cc2)ncc1C(=O)N[C@@H](CCN)C(=O)N(C)[C@@H]1C(=O)N[C@@H](C)C(=O)N[C@H](C(=O)NCC#N)Cc2ccc(OCCN)c(c2)-c2cc1ccc2OCCN (racemic) [Compound 220, rac-(8S,11S,14S)-3,18-bis(2-aminoethoxy)-N-(cyanomethyl)-11-methyl-14-[methyl-[rac-(2S)-4-amino-2-[[2-(4-isopentylphenyl)-4-methyl-pyrimidine-5-carbonyl]amino]butanoyl]amino]-10,13-dioxo-9,12-diazatricyclo[13.3.1.12,6]icosa-1(18),2(20),3,5,15(19),16-hexaene-8-carboxamide] |
